# Data: patent US10980899B2, “Differential diagnosis” (GE Healthcare Limited, priority 2016, dated 2021)
# Like-named read-outs stand apart in the source and are kept apart here.
# Columns and labels:
# DAT = DAT (Homo sapiens, UniProt Q01959); settings: without SSRI users, reference cerebellum
# Text: For this retrospective study, a selection was made from a database of patients diagnosed with either PD, MSA or PSP and for whom a [^123I]FP-CIT-SPECT scan was available. Diagnoses of patients were verified using their medical records. Patients no longer receiving treatment or clinical follow-up were approached by letter and diagnoses were retrieved from their current attending neurologist. This procedure was approved by the local Medical Ethics Committee of the VUmc and all patients provided written informed consent. […] Prior to analysis of [^123I]FP-CIT-SPECT binding ratios (BR), MSA and PSP patients were manually age and gender-matched with 30 PD patients from a research database.
# All patients received oral potassium perchlorate to block thyroid uptake of free radioactive iodide. [^123I]FP-CIT was injected intravenously 3 hours before image acquisition at an approximate dose of 185 MBq (specific activity >185 MBq/nmol; radiochemical purity >99%). Subjects were imaged using a dual-head gamma camera (E.Cam; Siemens. Munich. Germany) with a fan-beam collimator. 60×30 second views per head over a 180° orbit on a 128×128 pixel matrix were acquired resulting in a total imaging time of 30 minutes. Image reconstruction was performed using a filtered back projection with a Butterworth filter (order 8. cut-off 0.6 cycles/cm; voxel size: 3.9 mm^3 after reconstruction). Scans were reoriented manually to ensure that left and right striatum were aligned.
# ROIs were defined for the DAT-rich caudate nucleus and the SERT-rich thalamus from the automated anatomical labelling (AAL) atlas; the DAT-rich posterior putamen was bilaterally based on the AAL atlas as described elsewhere (Vriend, C. et al. 2014 Mov Disord; 29: 904-11) the SERT-rich pons ROI was based on the Talairach Daemon (TD) Lobes atlas; and the SERT-rich hypothalamus ROI was based on the TD Brodmann area+atlas and 2× dilated. All of these ROIs are implemented in the WFU Pickatlas 3.0 (Wake Forest University, Winston-Salem, N.C., USA).
# Non-specific [^123I]FP-CIT binding in the cerebellum was used as a reference (REF) (WFU Pickatlas, AAL atlas; bilateral Crus 2), because the cerebellum is relatively devoid of DAT and SERT. The ratio of specific to non-specific binding (BR), was calculated in Statistical Parametric Mapping Software version 8 (SPM8; Wellcome Trust Centre for Neuroimaging. London. UK) by: [(ROI−REF)/REF], and used as the outcome measure.
# Patient analyses were grouped by diagnosis (PD; MSA-P; MSA-C; PSP). MSA was split, since a difference is expected between DAT binding in MSA-P and MSA-C (Munoz E., et al. 2011 J Neurol; 258: 2248-2253).
# For the ROI analysis, normality of data was assessed by plotting histograms, examining Q-Q plots and Kolmogorov-Smirnov test for normality. One-way ANOVA tests were used where appropriate. Post-hoc testing was done with Hochberg GT2 correction. An alpha level of 0.05 was used.
# ROI analysis in groups without SSRI users (total group n=48: MSA-C=7; MSA-P=6; PSP=10; PD=25)
# SERT [1] = target: T1, SERT (Homo sapiens, UniProt P31645); assay: [123I]FP-CIT SPECT ROI analysis, extrastriatal (hypothalamus) binding ratios; format: in vivo; settings: without SSRI users, reference cerebellum
# T1 construct: from tissue; host or cells: living patients' brain: hypothalamus, thalamus, pons (extrastriatal regions)
# Text: Diagnoses of patients were verified using their medical records. […]
# One-way ANOVA tests were used where appropriate. Post-hoc testing was done with Hochberg GT2 correction. An alpha level of 0.05 was used.
# SERT [2] = target: T1, SERT; assay: Voxel-based analysis of [123I]FP-CIT SPECT, extrastriatal binding; format: in vivo; settings: groups without SSRI users
# Procedure: All voxels in the [^123I]FP-CIT SPECT scan were adjusted by the mean binding in the cerebellar reference region according to: [(voxel−REF)/REF]. Voxel-based between-group analyses were performed in SPM8 and explicitly masked for the relevant ROI, using the same masks as the ROI analysis. Statistical threshold was set to P<0.05, Family-Wise Error (FWE) corrected for multiple comparisons, Ke>0. Age was included as nuisance covariate in all analyses.
# Masks were based on the Automated anatomical labeling (AAL) atlas and created with the Wake-Forest University PickAtlas tool 3.0. Finally, the results of groups on SSRIs versus not being on a SSRI while scanned were compared with a ROI analysis.
# Voxel-Based, Groups without SSRI Users, Extrastriatal Binding
# [3] = target: serotonin transporter (SERT) (Homo sapiens, UniProt P31645); settings: Abi-Dargham et al. 1996; cited from earlier work
# SERT [4] = target: T1, SERT; settings: cited from earlier work
# [5] = target: dopamine transporter (DAT) (Homo sapiens, UniProt Q01959); settings: presynaptic membrane of dopaminergic neurons; cited from earlier work
# dopamine transporter (DAT), sequence (Q01959 whole entry, species assumed): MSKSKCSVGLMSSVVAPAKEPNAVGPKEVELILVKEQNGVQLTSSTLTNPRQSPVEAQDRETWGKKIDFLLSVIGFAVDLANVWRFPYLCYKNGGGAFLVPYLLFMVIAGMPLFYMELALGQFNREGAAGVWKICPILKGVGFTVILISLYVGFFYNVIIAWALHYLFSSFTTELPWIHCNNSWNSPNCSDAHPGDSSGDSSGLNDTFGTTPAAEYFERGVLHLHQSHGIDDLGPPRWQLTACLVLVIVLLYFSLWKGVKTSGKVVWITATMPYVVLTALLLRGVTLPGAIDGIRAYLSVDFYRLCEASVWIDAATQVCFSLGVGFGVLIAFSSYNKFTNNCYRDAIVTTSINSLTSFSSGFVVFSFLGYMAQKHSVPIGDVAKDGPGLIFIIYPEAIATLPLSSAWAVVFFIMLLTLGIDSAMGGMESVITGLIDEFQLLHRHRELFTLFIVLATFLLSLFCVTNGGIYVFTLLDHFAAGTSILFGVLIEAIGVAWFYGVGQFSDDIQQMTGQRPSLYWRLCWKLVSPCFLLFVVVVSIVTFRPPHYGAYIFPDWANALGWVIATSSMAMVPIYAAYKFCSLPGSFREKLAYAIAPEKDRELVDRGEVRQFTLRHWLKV
# T1 sequence (P31645 whole entry): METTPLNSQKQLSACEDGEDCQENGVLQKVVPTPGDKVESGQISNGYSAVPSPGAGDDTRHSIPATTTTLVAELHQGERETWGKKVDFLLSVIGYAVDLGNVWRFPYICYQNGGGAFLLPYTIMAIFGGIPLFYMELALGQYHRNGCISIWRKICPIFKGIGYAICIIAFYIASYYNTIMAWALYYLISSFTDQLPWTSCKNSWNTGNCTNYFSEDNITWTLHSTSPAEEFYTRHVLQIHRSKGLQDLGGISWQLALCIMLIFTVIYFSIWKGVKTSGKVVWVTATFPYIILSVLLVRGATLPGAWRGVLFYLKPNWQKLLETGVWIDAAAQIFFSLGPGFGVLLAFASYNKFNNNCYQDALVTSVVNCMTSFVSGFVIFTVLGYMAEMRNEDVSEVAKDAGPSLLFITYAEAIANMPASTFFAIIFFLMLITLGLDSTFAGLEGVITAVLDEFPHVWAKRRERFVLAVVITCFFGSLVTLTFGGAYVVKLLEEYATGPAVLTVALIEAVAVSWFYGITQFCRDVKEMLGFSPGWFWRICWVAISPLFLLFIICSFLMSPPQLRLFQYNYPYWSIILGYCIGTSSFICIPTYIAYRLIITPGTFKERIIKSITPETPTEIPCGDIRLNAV
# DAT, sequence (Q01959 whole entry): as the sequence (Q01959 whole entry, species assumed) above
# serotonin transporter (SERT), sequence (P31645 whole entry, species assumed): as the sequence (P31645 whole entry) above
compound,measurement,setting,value
"COC(=O)[C@H]1[C@@H](c2ccc([123I])cc2)C[C@@H]2CC[C@H]1N2CCCF [[^123I]FP-CIT, [^123I]N-w-fluoropropyl-2β-carbomethoxy-3β-(4-iodophenyl) nortropane]","mean [123I]FP-CIT binding ratio, left caudate",DAT; MSA-C patients,1.99
same,"mean [123I]FP-CIT binding ratio, left posterior putamen",DAT; MSA-C patients,2.12
same,"mean [123I]FP-CIT binding ratio, right caudate",DAT; MSA-C patients,2.16
same,"mean [123I]FP-CIT binding ratio, right posterior putamen",DAT; MSA-C patients,1.95
same,"mean [123I]FP-CIT binding ratio, left posterior putamen",DAT; MSA-P patients,1.36
same,"mean [123I]FP-CIT binding ratio, right posterior putamen",DAT; MSA-P patients,1.19
same,"mean [123I]FP-CIT binding ratio, left caudate",DAT; PD patients,1.87
same,"mean [123I]FP-CIT binding ratio, left posterior putamen",DAT; PD patients,1.58
same,"mean [123I]FP-CIT binding ratio, right caudate",DAT; PD patients,1.92
same,"mean [123I]FP-CIT binding ratio, left caudate",DAT; PSP patients,1.28
same,"mean [123I]FP-CIT binding ratio, left posterior putamen",DAT; PSP patients,1.29
same,"mean [123I]FP-CIT binding ratio, right caudate",DAT; PSP patients,1.39
same,mean hypothalamic [123I]FP-CIT binding ratio,SERT [1]; MSA-C patients,0.78
same,mean hypothalamic [123I]FP-CIT binding ratio,SERT [1]; MSA-P patients,0.45
same,mean hypothalamic [123I]FP-CIT binding ratio,SERT [1]; PD patients,0.67
same,mean hypothalamic [123I]FP-CIT binding ratio,SERT [1]; PSP patients,0.47
same,"hypothalamus binding ratios, between-group comparison (voxel-based)",SERT [2]; MSA-C vs PSP,higher binding ratios in hypothalamus in MSA-C than in PSP
same,"hypothalamus binding, between-group comparison (voxel-based)",SERT [2]; PD vs MSA-P or PSP,statistically significantly higher in PD than in MSA-P or PSP
same,affinity for the serotonin transporter (SERT),[3],modest affinity
same,"hypothalamus binding, MSA-P and PSP vs PD",SERT [4]; Joling et al. 2016,lower binding in the hypothalamus in MSA-P and PSP patients than in PD patients
same,"midbrain binding, PSP vs PD",SERT [4]; Roselli et al. 2010,lower in PSP patients than in PD patients
same,affinity to the dopamine transporter (DAT),[5],high affinity
